Assay results taken from patent US20250186391A1, “ORAL COMPLEMENT FACTOR D INHIBITORS” (BioCryst Pharmaceuticals, Inc., priority 2019, published 2025).

Each compound was assayed against Factor D (Homo sapiens (Human), UniProt P00746) (assay: Factor D esterolytic assay). Details: Z-Lys-SBzl substrate, 100 mM HEPES, 500 mM NaCl, pH 7.5, 10% DMSO; tested a minimum of three times; read-out: Measured Ki (IC50) Value for Compounds: IC50.
Sequence of Factor D (P00746 26-253): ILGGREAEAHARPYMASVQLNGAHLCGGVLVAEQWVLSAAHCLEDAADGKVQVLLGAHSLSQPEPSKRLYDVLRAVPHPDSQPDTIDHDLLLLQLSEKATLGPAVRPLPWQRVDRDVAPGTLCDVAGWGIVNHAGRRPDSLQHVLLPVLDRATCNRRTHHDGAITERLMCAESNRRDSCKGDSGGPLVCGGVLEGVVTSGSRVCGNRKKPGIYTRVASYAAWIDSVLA
Type: biochemical
Method in brief: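 Buffer was 100 mM HEPES, 500 mM NaCl, pH 7.5 with 10% DMSO. Compound and Factor D were combined, then Z-Lys-SBzl (1.29 mM) was added either at once or following room-temperature incubation. Rates came from DTNB colour at 405 nm minus 690 nm over 600 s, with percent inhibition giving IC50 over at least three tests.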
`CCOC(=O)Cc1ccccc1OCc1cc2c(-c3cccc(CN)c3)cccc2o1` [Compound 25c, ethyl 2-(2-((4-(3-(aminomethyl)phenyl)benzofuran-2-yl)methoxy)phenyl)acetate] was tested, and the IC50 was over 10 µM.
`Cc1ncc(-c2cc(-c3cccc(CN)c3)cc3c(COc4ccccc4CC(=O)O)coc23)cn1` [Compound 165c, 2-(2-((5-(3-(aminomethyl)phenyl)-7-(2-methylpyrimidin-5-yl)benzofuran-3-yl)methoxy)phenyl)acetic acid] gave an IC50 of under 1 µM.
`Cc1ccc(CC(=O)O)c(OCc2c(C)oc3ccc(-c4cccc(CN)c4)cc23)c1` [Compound 131c, 2-(2-((5-(3-(aminomethyl)phenyl)-2-methylbenzofuran-3-yl)methoxy)-4-methylphenyl)acetic acid] gave an IC50 of under 1 µM.
`COc1ccc(CC(=O)O)c(OCc2c(C(F)F)oc3c(NCC4CC4)cc(-c4cccc(CN)c4)cc23)c1` [Compound 236c, 2-(2-((5-(3-(aminomethyl)phenyl)-7-((cyclopropylmethyl)amino)-2-(difluoromethyl)benzofuran-3-yl)methoxy)-4-methoxyphenyl)acetic acid] was tested, and the IC50 was under 1 µM.
In the case of `NCc1cccc(-c2cc(OCc3nccs3)c3occ(COc4ccccc4CC(=O)O)c3c2)c1` [Compound 196f, 2-(2-((5-(3-(aminomethyl)phenyl)-7-(thiazol-2-ylmethoxy)benzofuran-3-yl)methoxy)phenyl)acetic acid], the IC50 is reported as under 1 µM.
`CCc1ccc(CC(=O)O)c(OCc2coc3ccc(-c4cccc(CN)c4)cc23)c1` [Compound 49b, 2-(2-((5-(3-(aminomethyl)phenyl)benzofuran-3-yl)methoxy)-4-ethylphenyl)acetic acid] gave an IC50 of under 1 µM.
In the case of `CCc1ccc(CC(=O)O)c(OCc2c(C)oc3ccc(-c4cccc(CN)c4)cc23)c1` [Compound 202c, 2-(2-((5-(3-(aminomethyl)phenyl)-2-methylbenzofuran-3-yl)methoxy)-4-ethylphenyl)acetic acid], the IC50 is reported as under 1 µM.
With `Cc1ccc(CC(=O)O)c(OCc2c(C(C)(C)C)oc3ccc(-c4cccc(CN)c4)cc23)c1` [Compound 176c, 2-(2-((5-(3-(aminomethyl)phenyl)-2-(tert-butyl)benzofuran-3-yl)methoxy)-4-methylphenyl)acetic acid] the IC50 was under 1 µM.
Work on `NCc1cccc(-c2ccc3oc(F)c(COc4ccccc4CC(=O)O)c3c2)c1` [Compound 204c, 2-(2-((5-(3-(aminomethyl)phenyl)-2-fluorobenzofuran-3-yl)methoxy)phenyl)acetic acid] yielded an IC50 of under 1 µM.
`Cc1cc(-c2cc(-c3cccc(CN)c3)cc3c(COc4ccccc4CC(=O)O)coc23)cn(C)c1=O` [Compound 224c, 2-(2-((5-(3-(aminomethyl)phenyl)-7-(1,5-dimethyl-6-oxo-1,6-dihydropyridin-3-yl)benzofuran-3-yl)methoxy)phenyl)acetic acid] gave an IC50 of under 1 µM.
`Cn1cc(-c2cc(-c3cccc(CN)c3)cc3c(COc4ccccc4CC(=O)O)c(C(=O)O)oc23)cn1` [Compound 60d, 5-(3-(aminomethyl)phenyl)-3-((2-(carboxymethyl)phenoxy)methyl)-7-(1-methyl-1H-pyrazol-4-yl)benzofuran-2-carboxylic acid] was tested, and the IC50 was under 1 µM.
`COc1ccc(CC(=O)O)c(OCc2c3cc(-c4cccc(CN)c4)ccc3nn2C(C)C)c1` [Compound 255c, 2-(2-((5-(3-(aminomethyl)phenyl)-2-isopropyl-2H-indazol-3-yl)methoxy)-4-methoxyphenyl)acetic acid] showed an IC50 of under 1 µM.
`COc1ccc(CC(=O)O)c(OCc2c(C)oc3ccc(-c4cccc([C@H](N)CO)c4)cc23)c1` [Compound 241c, (S)-2-(2-((5-(3-(1-amino-2-hydroxyethyl)phenyl)-2-methylbenzofuran-3-yl)methoxy)-4-methoxyphenyl)acetic acid] showed an IC50 of under 1 µM.
`NCc1cccc(-c2ccc3nnc(COc4ccccc4CC(=O)O)n3c2)c1` [Compound 212d, 2-(2-((6-(3-(aminomethyl)phenyl)-[1,2,4]triazolo[4,3-a]pyridin-3-yl)methoxy)phenyl)acetic acid] gave an IC50 of under 1 µM.
`NCc1cccc(-c2cc(COc3ccc(F)cc3)c3occ(COc4ccccc4CC(=O)O)c3c2)c1` [Compound 143f, 2-(2-((5-(3-(aminomethyl)phenyl)-7-((4-fluorophenoxy)methyl)benzofuran-3-yl)methoxy)phenyl)acetic acid] showed an IC50 of under 1 µM.
In the case of `NCc1cccc(-c2ccc3occ(COc4cc(CC5CC5)ccc4CC(=O)O)c3c2)c1` [Compound 153d, 2-(2-((5-(3-(aminomethyl)phenyl)benzofuran-3-yl)methoxy)-4-(cyclopropylmethyl)phenyl)acetic acid], the IC50 is reported as under 1 µM.
In the case of `Cc1ccc(CC(=O)O)c(OCc2c3cc(-c4cccc(CN)c4)ccc3nn2C(C)C)c1` [Compound 256c, 2-(2-((5-(3-(aminomethyl)phenyl)-2-isopropyl-2H-indazol-3-yl)methoxy)-4-methylphenyl)acetic acid], the IC50 is reported as under 1 µM.
`NCc1cccc(-c2cccc3cc(C(=O)Nc4ccccc4CC(=O)O)oc23)c1` [Compound 21b, 2-(2-(7-(3-(aminomethyl)phenyl)benzofuran-2-carboxamido)phenyl)acetic acid] was tested, and the IC50 was 1 to 10 µM.
With `NCc1cccc(-c2ccc3occ(COc4ccccc4CCC(=O)O)c3c2)c1` [Compound 2d, 3-(2-((5-(3-(aminomethyl)phenyl)benzofuran-3-yl)methoxy)phenyl)propanoic acid] the IC50 was 1 to 10 µM.
`Cc1ccccc1-c1cc(-c2cccc(CN)c2)cc2c(COc3ccccc3CC(=O)O)coc12` [Compound 223c, 2-(2-((5-(3-(aminomethyl)phenyl)-7-(o-tolyl)benzofuran-3-yl)methoxy)phenyl)acetic acid] was tested, and the IC50 was under 1 µM.
Work on `NCc1cccc(-c2ccc3cccc(COc4ccccc4CC(=O)O)c3c2)c1` [Compound 100d, 2-(2-((7-(3-(aminomethyl)phenyl)naphthalen-1-yl)methoxy)phenyl)acetic acid] yielded an IC50 of under 1 µM.
Compound `NCc1cccc(-c2ccc3c(c2)c(COc2ccccc2CC(=O)O)nn3-c2cccnc2)c1` [Compound 264c, 2-(2-((5-(3-(aminomethyl)phenyl)-1-(pyridin-3-yl)-1H-indazol-3-yl)methoxy)phenyl)acetic acid] has an IC50 of under 1 µM.
Work on `NCc1cccc(-c2cc(-c3cccnc3)c3occ(COc4ccccc4CC(=O)O)c3c2)c1` [Compound 162c, 2-(2-((5-(3-(aminomethyl)phenyl)-7-(pyridin-3-yl)benzofuran-3-yl)methoxy)phenyl)acetic acid] yielded an IC50 of under 1 µM.
With `COc1ccc(CC(=O)O)c(OCc2coc3c(NCC4CC4)cc(-c4cccc(CN)c4)cc23)c1` [Compound 276e, 2-(2-((5-(3-(aminomethyl)phenyl)-7-((cyclopropylmethyl)amino)benzofuran-3-yl)methoxy)-4-methoxyphenyl)acetic acid] the IC50 was under 1 µM.
Compound `CCc1oc2ccc(-c3cccc(CN)c3)cc2c1COc1cc(C)ccc1CC(=O)O` [Compound 319c, 2-(2-((5-(3-(aminomethyl)phenyl)-2-ethylbenzofuran-3-yl)methoxy)-4-methylphenyl)acetic acid] has an IC50 of under 1 µM.
Work on `COc1cc2occ(COc3ccccc3CC(=O)O)c2cc1-c1cccc(CN)c1` [Compound 69f, 2-(2-((5-(3-(aminomethyl)phenyl)-6-methoxybenzofuran-3-yl)methoxy)phenyl)acetic acid] yielded an IC50 of under 1 µM.
Compound `NCc1cccc(-c2ccc3occ(COc4cc(OC(F)(F)F)ccc4CC(=O)O)c3c2)c1` [Compound 110d, 2-(2-((5-(3-(aminomethyl)phenyl)benzofuran-3-yl)methoxy)-4-(trifluoromethoxy)phenyl)acetic acid] has an IC50 of under 1 µM.
In the case of `NCc1cccc(-c2cc(C3CC3)c3occ(COc4ccccc4CC(=O)O)c3c2)c1` [Compound 120c, 2-(2-((5-(3-(aminomethyl)phenyl)-7-cyclopropylbenzofuran-3-yl)methoxy)phenyl)acetic acid], the IC50 is reported as under 1 µM.
For `NCc1cccc(-c2ccc3cnn(Cc4ccccc4CC(=O)O)c3c2)c1` [Compound 67e, 2-(2-((6-(3-(aminomethyl)phenyl)-1H-indazol-1-yl)methyl)phenyl)acetic acid], the IC50 was under 1 µM.
For `NCc1cccc(-c2cc(Cn3ccnc3)c3occ(COc4ccccc4CC(=O)O)c3c2)c1` [Compound 155e, 2-(2-((7-((1H-imidazol-1-yl)methyl)-5-(3-(aminomethyl)phenyl)benzofuran-3-yl)methoxy)phenyl)acetic acid], the IC50 was under 1 µM.
In the case of `Cc1nn(C)cc1-c1cc(-c2cccc(CN)c2)cc2c(COc3ccccc3CC(=O)O)coc12` [Compound 134c, 2-(2-((5-(3-(aminomethyl)phenyl)-7-(1,3-dimethyl-1H-pyrazol-4-yl)benzofuran-3-yl)methoxy)phenyl)acetic acid], the IC50 is reported as under 1 µM.
Work on `CC(C)(C)OC(=O)Nc1ccc(CC(=O)O)c(OCc2coc3ccc(-c4cccc(CN)c4)cc23)c1` [Compound 83h, 2-(2-((5-(3-(aminomethyl)phenyl)benzofuran-3-yl)methoxy)-4-((tert-butoxycarbonyl)amino)phenyl)acetic acid] yielded an IC50 of under 1 µM.
Compound `NCc1cccc(-c2coc3ccc(COc4ccccc4CC(=O)O)cc23)c1` [Compound 38e, 2-(2-((3-(3-(aminomethyl)phenyl)benzofuran-5-yl)methoxy)phenyl)acetic acid] has an IC50 of under 1 µM.
`CC(C)n1nc(COc2ccccc2CC(=O)O)c2cc(-c3cc(CN)cc(C4CC4)c3)ccc21` [Compound 331e, 2-(2-((5-(3-(aminomethyl)-5-cyclopropylphenyl)-1-isopropyl-1H-indazol-3-yl)methoxy)phenyl)acetic acid] was tested, and the IC50 was 1 to 10 µM.
Compound `COc1ccc(CC(=O)O)c(OCc2coc3c(NCC4CCCC4)cc(-c4cccc(CN)c4)cc23)c1` [Compound 277c, 2-(2-((5-(3-(aminomethyl)phenyl)-7-((cyclopentylmethyl)amino)benzofuran-3-yl)methoxy)-4-methoxyphenyl)acetic acid] has an IC50 of under 1 µM.
